# Experimental data published in patent US20070009593A1, “Methods of treating cancer” (Indianan University Advanced Research, priority 2002, published 2007).
# pIC50: −log10 of the molar value. Read-outs that look alike come from different tables or passages of the source.
# Columns and labels:
# [1] = in vivo; conditions: mouse, ip
# [2] = test system: MCF7; assay: MTT assay, breast cancer line; type: cell-based; conditions: Homo sapiens, MCF7, read-out: Ritonavir IC50
# Experimental: (§1) The drugs were tested together at the ratio of their IC50 as single agents, over a 4-log range of concentrations. […] Viable cell number was measured by MTT assay.
# [3] = test system: SKBR-3; assay: MTT assay, breast cancer line; type: cell-based; conditions: Homo sapiens, SK-BR-3, read-out: Ritonavir IC50
# Experimental: as §1
# [4] = test system: T47D; assay: MTT assay, breast cancer line; type: cell-based; conditions: Homo sapiens, read-out: Ritonavir IC50
# Experimental: as §1
# [5] = test system: MDA-436; assay: MTT assay, breast cancer line; type: cell-based; conditions: Homo sapiens, read-out: Ritonavir IC50; MDA-436 parental line
# Experimental: as §1
# [6] = test system: MDA-231; assay: MTT assay, breast cancer line; type: cell-based; conditions: Homo sapiens
# Experimental: as §1
# [7] = test system: Caco 2 C9 control (pRC/CMV vector); assay: MTT assay, 96 well plate, 48 h; type: cell-based; conditions: Caco-2, 48 h, read-out: Ritonavir IC50
# [8] = test system: calpain cleavage of α-fodrin; assay: NFF score, IHC with PP1 antibody, ritonavir treated mice; type: in vivo; conditions: 10 days
# Excerpt: Differentiation of the stratum spinosum of tongue epithelium was affected, with a reduction of nuclear involution as well as an increase in the keratinized layer (FIGS. 5A-5C). […] Previous observations of the proliferative rate of tongue compared to skin in mice indicate that tongue is a more proliferative epithelium (Hume, W. J. Cell Tissue Kinet. 19:195-203 (1986)).
# The antiserum specific for the calpain-dependent α-fodrin cleavage, PP1, was used at 1:100 dilution. Competition with specific peptide blocked nuclear staining. The size bar is […]. […] Arrows indicate basal layer nuclei. The vertical bar indicates maximum thickness of the keratinized layer in each image.
# [9] = test system: MDA-MD-435 cells; assay: proliferation assay, MTT, 24 hours; type: cell-based; conditions: Homo sapiens, 24 hours exposure, averaging 2 experiments
# Experimental: Proliferation assays were done by plating cells in a 96 well plate at […] for the 231 cells and 5×10^3 cells per well for the 435 cells. The cells were allowed to attach and grow for 24 hours. […] The cells were allowed to grow for 24 hours and the number of viable cells was measured by MTT assay.
# [10] = patients, Gatti et al., cited from earlier work
# [11] = test system: HUVEC; assay: HUVEC tubule formation assay; type: cell-based; conditions: Homo sapiens, 72 h, fibrin gel, VEGF and bFGF, counted at three days, read-out: IC50, formation of new endothelial cell tubules
# Experimental: Endothelial cell tubule formation in a fibrin clot is an analog of angiogenesis and was used to assay angiogenesis inhibitors (Brown et al., Lab. Investig. 75:539, 1996). HUVEC were coated on Cytodex™ microcarrier beads (Pharmacia) at a density of 30 HUVEC per bead, in a siliconized dish containing HUVEC complete medium, for 24 hours. […] Tubules were counted at three days.
smiles,measurement,setting,value
"CC(C)c1nc(CN(C)C(=O)N[C@H](C(=O)N[C@@H](Cc2ccccc2)C[C@H](O)[C@H](Cc2ccccc2)NC(=O)OCc2cncs2)C(C)C)cs1 [Ritonavir, ritonavir]",half-life,[1],< 3 h
same,pIC50,[2],4.60
same,pIC50,[3],4.22
same,pIC50,[4],4.92
same,pIC50,[5],4.40
same,pIC50,"[6]; MDA-MB-231, read-out: Ritonavir IC50, MDA-231",4.30
same,pIC50,"[6]; MDA-MB-231, MDA-231, 48 hours, MTT, single agent, read-out: IC50",4.22
same,pIC50,[7],4.52
same,NFF score,"[8]; tongue basal cell layer, 12 μM peak",34%
same,NFF score,"[8]; tongue basal cell layer, 67 μM peak",1%
same,NFF score,"[8]; ventral skin basal cell layer, 12 μM peak",27%
same,NFF score,"[8]; ventral skin basal cell layer, 67 μM peak",17%
same,pIC50,[9],~3.82
same,peak plasma ritonavir concentrations,[10]; AIDS 13:2083-2089,18.6 to 46 µM
same,trough concentrations,[10]; AIDS 13:2083-2089,10.4 to 17.5 µM
same,Cmax,[10]; read-out: upper boundary of ritonavir Cmax plasma concentrations,~45 µM
same,pIC50,[11],4.80
